Data: the NIST ThermoML archive (doi:10.1016/j.jct.2019.03.040)

Key:
[1] = Liquid; for thermal diffusivity: 101.33 kPa, Laser flash apparatus
[2] = molar heat capacity at constant pressure; details: 101.33 kPa, Liquid, Small sample (50 mg) DSC

CCCOC(=O)CCC(C)=O [propyl levulinate]
Details	Critical pressure [kPa]	Critical temperature [K]	molar heat capacity at constant pressure [J/K/mol]	thermal diffusivity [m2/s]
[1], 303.15 K	–	–	–	7.82e-08
[1], 313.15 K	–	–	–	7.73e-08
[1], 323.15 K	–	–	–	7.62e-08
[1], 333.15 K	–	–	–	7.53e-08
[1], 343.15 K	–	–	–	7.37e-08
[1], 353.15 K	–	–	–	7.26e-08
[1], 363.15 K	–	–	–	7.22e-08
[1], Resistive pulse heating	2670	674	–	–
[2], 303.04 K	–	–	319.87	–
[2], 303.54 K	–	–	320.34	–
[2], 304.04 K	–	–	320.5	–
[2], 304.54 K	–	–	320.03	–
[2], 305.04 K	–	–	320.5	–
[2], 305.54 K	–	–	320.34	–
[2], 306.04 K	–	–	320.5	–
[2], 306.54 K	–	–	320.19	–
[2], 307.04 K	–	–	320.19	–
[2], 307.54 K	–	–	320.82	–
[2], 308.04 K	–	–	320.82	–
[2], 308.54 K	–	–	321.45	–
[2], 309.04 K	–	–	320.82	–
[2], 309.54 K	–	–	321.14	–
[2], 310.04 K	–	–	321.61	–
[2], 310.54 K	–	–	321.14	–
[2], 311.04 K	–	–	321.29	–
[2], 311.54 K	–	–	321.29	–
[2], 312.04 K	–	–	322.08	–
[2], 312.54 K	–	–	321.45	–
[2], 313.04 K	–	–	322.24	–
[2], 313.54 K	–	–	322.08	–
[2], 314.04 K	–	–	322.24	–
[2], 314.54 K	–	–	322.24	–
[2], 315.04 K	–	–	322.56	–
[2], 315.54 K	–	–	322.88	–
[2], 316.04 K	–	–	322.72	–
[2], 316.54 K	–	–	322.24	–
[2], 317.04 K	–	–	322.56	–
[2], 317.54 K	–	–	323.03	–
[2], 318.04 K	–	–	323.98	–
[2], 318.54 K	–	–	323.19	–
[2], 319.04 K	–	–	323.67	–
[2], 319.54 K	–	–	324.14	–
[2], 320.04 K	–	–	323.35	–
[2], 320.54 K	–	–	323.83	–
[2], 321.04 K	–	–	323.67	–
[2], 321.54 K	–	–	323.83	–
[2], 322.04 K	–	–	323.83	–
[2], 322.54 K	–	–	324.62	–
[2], 323.04 K	–	–	324.46	–
[2], 323.54 K	–	–	324.46	–
[2], 324.04 K	–	–	324.3	–
[2], 324.54 K	–	–	324.93	–
[2], 325.04 K	–	–	324.93	–
[2], 325.54 K	–	–	325.25	–
[2], 326.04 K	–	–	325.57	–
[2], 326.54 K	–	–	325.72	–
[2], 327.04 K	–	–	325.88	–
[2], 327.54 K	–	–	325.72	–
[2], 328.04 K	–	–	326.04	–
[2], 328.54 K	–	–	326.67	–
[2], 329.04 K	–	–	325.72	–
[2], 329.54 K	–	–	326.51	–
[2], 330.04 K	–	–	326.2	–
[2], 330.54 K	–	–	326.83	–
[2], 331.04 K	–	–	326.83	–
[2], 331.54 K	–	–	327.15	–
[2], 332.04 K	–	–	326.83	–
[2], 332.54 K	–	–	327.15	–
[2], 333.04 K	–	–	326.83	–
[2], 333.54 K	–	–	327.31	–
[2], 334.04 K	–	–	327.62	–
[2], 334.54 K	–	–	328.1	–
[2], 335.04 K	–	–	328.41	–
[2], 335.54 K	–	–	328.73	–
[2], 336.04 K	–	–	328.41	–
[2], 336.54 K	–	–	328.25	–
[2], 337.04 K	–	–	328.57	–
[2], 337.54 K	–	–	328.57	–
[2], 338.04 K	–	–	329.2	–
[2], 338.54 K	–	–	328.89	–
[2], 339.04 K	–	–	329.05	–
[2], 339.54 K	–	–	329.2	–
[2], 340.04 K	–	–	328.89	–
[2], 340.54 K	–	–	329.36	–
[2], 341.04 K	–	–	329.84	–
[2], 341.54 K	–	–	329.99	–
[2], 342.04 K	–	–	329.68	–
[2], 342.54 K	–	–	329.36	–
[2], 343.04 K	–	–	330.31	–
[2], 343.54 K	–	–	330.31	–
[2], 344.04 K	–	–	330.15	–
[2], 344.54 K	–	–	330.15	–
[2], 345.04 K	–	–	330.63	–
[2], 345.54 K	–	–	331.1	–
[2], 346.04 K	–	–	331.1	–
[2], 346.54 K	–	–	330.94	–
[2], 347.04 K	–	–	331.58	–
[2], 347.54 K	–	–	331.58	–
[2], 348.04 K	–	–	331.73	–
[2], 348.54 K	–	–	332.05	–
[2], 349.04 K	–	–	331.89	–
[2], 349.54 K	–	–	332.05	–
[2], 350.04 K	–	–	332.37	–
[2], 350.54 K	–	–	332.68	–
[2], 351.04 K	–	–	333.16	–
[2], 351.54 K	–	–	333	–
[2], 352.04 K	–	–	333	–
[2], 352.54 K	–	–	333.16	–
[2], 353.04 K	–	–	333.95	–
[2], 353.54 K	–	–	333.47	–
[2], 354.04 K	–	–	334.27	–
[2], 354.54 K	–	–	334.27	–
[2], 355.04 K	–	–	334.42	–
[2], 355.54 K	–	–	334.74	–
[2], 356.04 K	–	–	334.27	–
[2], 356.54 K	–	–	334.42	–
[2], 357.04 K	–	–	334.58	–
[2], 357.54 K	–	–	334.58	–
[2], 358.04 K	–	–	335.22	–
[2], 358.54 K	–	–	335.37	–
[2], 359.04 K	–	–	335.85	–
[2], 359.54 K	–	–	335.85	–
[2], 360.04 K	–	–	335.53	–
[2], 360.54 K	–	–	336.01	–
[2], 361.04 K	–	–	336.32	–
[2], 361.54 K	–	–	336.64	–
[2], 362.04 K	–	–	336.16	–
[2], 362.54 K	–	–	336.01	–
[2], 363.04 K	–	–	336.16	–
[2], 363.54 K	–	–	336.64	–
[2], 364.04 K	–	–	337.11	–
[2], 364.54 K	–	–	337.11	–
[2], 365.04 K	–	–	337.11	–
[2], 365.54 K	–	–	337.11	–
[2], 366.04 K	–	–	337.9	–
[2], 366.54 K	–	–	337.9	–
[2], 367.04 K	–	–	337.59	–
[2], 367.54 K	–	–	337.59	–
[2], 368.04 K	–	–	338.06	–
[2], 368.54 K	–	–	338.06	–
[2], 369.04 K	–	–	337.75	–
[2], 369.54 K	–	–	337.9	–
[2], 370.04 K	–	–	338.22	–
[2], 370.54 K	–	–	338.06	–
[2], 371.04 K	–	–	338.54	–
[2], 371.54 K	–	–	338.54	–
[2], 372.04 K	–	–	338.7	–
[2], 372.54 K	–	–	339.49	–
[2], 373.04 K	–	–	339.33	–
[2], 373.54 K	–	–	339.49	–
[2], 374.04 K	–	–	340.12	–
[2], 374.54 K	–	–	340.75	–
